Experimental findings from patent US12459921B2, “Isoindoline compound, preparation method, pharmaceutical composition and use thereof” (SHANGHAI INSTITUTE OF MATERIA MEDICA, CHINESE ACADEMY OF …, priority 2018, dated 2025) are described below.

This assay has as its system MM.1S cells. Put plainly: Inhibitory effect on the proliferation of MM.1S, MTS cell viability test. The class given is cell-based. Conditions: Homo sapiens, MM1.S, 168 h, multiple myeloma MM.1S cells, 7 days incubation, read-out: Tumor cell inhibitory activity. How it is done:
Method of tumor cell proliferation inhibition test: the inventors tested all the example compounds on hematologic tumor cells, multiple myeloma MMTs cell line and acute leukemia cell MV-4-11 cell line of some examples. The activity test method and results are as follows.
1. The Compound's Inhibitory Effect on the Proliferation of MM.1S, MTS Cell Viability Test:
MM.1S cells were cultured and collected with 1640 plus 10% fetal bovine serum. The cell concentration was diluted according to 7 days, and 180 ul cell suspension was added to each well of the 96-well cell plate to 20,000 cells. 20 ul of DMSO with a final concentration of 0.2% was added to the control wells. The compound was 5-fold diluted—from the 10 mM stock solution, and 20 ul was also added to each compound cell well (the final concentration of DMSO was 0.2%). The cells were placed in a 37° C., 5% CO2 incubator to incubate for 7 days. After the reaction solution was prepared according to the MTS kit (Promega, G5430), 20 μL was added to each well and incubated in a 37° C., 5% CO2 incubator for 3-4 h. Absorbance value at 490 nm was read with a microtiter plate, and 690 nm absorbance value was used as the background value. OD490-OD690 was used as the final initial data. The formula for calculating the inhibition rate of the compound is: inhibition rate=(ODDMSO-ODcompound)/(ODDMSO-Oblank)×100%. The compound's proliferation inhibition IC50 was fitted by Graph Pad Prism 5.0. The experiment was repeated three times, and the average and standard deviation was calculated according to the three parallel experiments.
Cell viability test results: **** represents cell viability IC50>20 μM, […] represents cell viability 1 μM<IC50<20 μM, ** represents cell viability 100 nM<IC50<1 μM, * represents cell viability IC50<100 nM.
(Tetrazolium assays rely on reduction of a dye to a coloured formazan, in cell work by metabolically active cells.)
With `C[C@]1(N2Cc3c(OCCCN4CCC(C#N)(c5cccc(OC(F)(F)F)c5)CC4)cccc3C2=O)CCC(=O)NC1=O` [Example 60, (S)-1-(3-((2-(3-methyl-2,6-dioxopiperidine-3-)-1-oxoisoindoline-4-)oxy)propyl)-4-(3-(trifluoromethoxy)phenyl)piperidine-4-carbonitrile], the IC50 is 1000 to 20000 nM.
As to `O=C1CCC(N2Cc3c(OCCCCN4CCC5(CC4)OCc4ccc(Cl)cc45)cccc3C2=O)C(=O)N1` (stereo not drawn) [Example 124, 3-(4-(4-(6-chloro-3H-spiro[isobenzofuran-1,4′-piperidine]-1′-)butoxy)-1-oxoisoindoline-2-)piperidine-2,6-dione], the IC50 is less than 100 nM.
For `O=C1CCC(N2Cc3c(CCCCCOc4cccc5cnccc45)cccc3C2=O)C(=O)N1` (stereo not drawn) [Example 5], the IC50 was in the range of 100 to 1000 nM.
Regarding `COc1ccc(C2(C#N)CCN(CCCCc3cccc4c3CN(C3CCC(=O)NC3=O)C4=O)CC2)c(Cl)c1` (stereo not drawn) [Example 245, 4-(2-chloro-4-methoxyphenyl)-1-(4-(2-(2,6-dioxopiperidine-3-yl)-1-oxoisoindoline-4-yl)butyl)piperidine-4-carbonitrile], the IC50 lay within 100 to 1000 nM.
For the compound `O=C1CCC(N2Cc3c(CCCCCCOc4ccnc5ccccc45)cccc3C2=O)C(=O)N1` (stereo not drawn) [Example 3, 3-(1-oxo-4-(6-(quinoline-4-oxy)hexyl)isoindoline-2-)piperidine-2,6-dione], the IC50 was less than 100 nM.
Regarding `O=C1CCC(N2Cc3c(CCCCN4CCN(c5ccc(Cl)c(Cl)c5)CC4)cccc3C2=O)C(=O)N1` (stereo not drawn) [Example 44, 3-(4-(4-(4-(3,4-dichlorophenyl)piperazine-1-)butyl)-1-oxoisoindoline-2-)piperidine-2,6-dione], the IC50 was less than 100 nM.
Turning to `N#CC1(c2ccc(OC(F)(F)F)cc2)CCN(CCCCCc2cccc3c2CN(C2CCC(=O)NC2=O)C3=O)CC1` (stereo not drawn) [Example 96, 1-(5-(2-(2,6-dioxopiperidine-3-)-1-oxoisoindoline-4-)pentyl)-4-(4-trifluoromethoxyphenyl)piperidine-4-carbonitrile], the IC50 is less than 100 nM.
For the compound `O=C1CCC(N2Cc3c(OCCCCN4CCC5(CC4)OCc4ccccc45)cccc3C2=O)C(=O)N1` (stereo not drawn) [Example 126, 3-(4-(4-(2H-spiro[benzofuran-3,4′-piperidine]-1′-)butoxy)-1-oxoisoindoline-2-)piperidine-2,6-dione], the IC50 is less than 100 nM.
Next, `O=C1CCC(N2Cc3c(CCCCN4CCN(c5ccc(F)cc5F)CC4)cccc3C2=O)C(=O)N1` (stereo not drawn) [Example 43, 3-(4-(4-(4-(2,4-difluorophenyl)piperazine-1-)butyl)-1-oxoisoindoline-2-)piperidine-2,6-dione]: less than 100 nM; `CC(=O)N[C@@H](CCCc1cccc2c1CN(C1CCC(=O)NC1=O)C2=O)C(=O)N[C@H](C)c1ccccc1` (stereo partly drawn) [Example 169, (2S)-2-acetylamino-5-(2-(2,6-dioxopiperidine-3-)-1-oxoisoindoline-4-)-N—((R)-1-phenethyl)pentanoamide]: less than 100 nM; `O=C1CCC(N2Cc3c(CCCCCN4CCCc5cc(Cl)ccc54)cccc3C2=O)C(=O)N1` (stereo not drawn) [Example 115]: 100 to 1000 nM.
In the case of `O=C1CCC(N2Cc3c(OCCNC(=O)N4CCN(c5cccc(Cl)c5Cl)CC4)cccc3C2=O)C(=O)N1` (stereo not drawn) [Example 32, 4-(2,3-dichlorophenyl)-N-(2-((2-(2,6-dioxopiperidine-3-)-1-oxoisoindoline-4-)oxy)ethyl)piperazine-1-carboxamide], the IC50 fell in the range of 100 to 1000 nM.
For the compound `O=C1CCC(N2Cc3c(CCCCN4CCN(c5ccccc5[N+](=O)[O-])CC4)cccc3C2=O)C(=O)N1` (stereo not drawn) [Example 216, 3-(4-(4-(4-(2-nitrophenyl)piperazine-1-yl)butyl)-1-oxoisoindoline-2-yl) piperidine-2,6-dione], the IC50 was less than 100 nM.
For `O=C1CCC(N2Cc3c(CCCCCN4CCC5(CC4)C(=O)Nc4ccccc45)cccc3C2=O)C(=O)N1` (stereo not drawn) [Example 121, 3-(1-oxo-4-(5-(2-oxospiro[indoline-3,4′-piperidine]-1′-)pentyl)indoline-2-)piperidine-2,6-dione], the IC50 is less than 100 nM.
Regarding `N#CC1(c2ccccc2Cl)CCN(CCCCc2cccc3c2CN(C2CCC(=O)NC2=O)C3=O)CC1` (stereo not drawn) [Example 91, 4-(2-chlorophenyl)-1-(4-(2-(2,6-dioxopiperidine-3-)-1-oxoisoindoline-4-)butyl)piperidine-4-carbonitrile], the IC50 is less than 100 nM.
Take `CC(=O)N[C@@H](CCCc1cccc2c1CN(C1CCC(=O)NC1=O)C2=O)C(=O)NCc1cccc(Cl)c1` (stereo partly drawn) [Example 184, (2S)-2-acetylamino-N-(3-chlorobenzyl)-5-(2-(2,6-dioxopiperidine-3-)-1-oxoisoindoline-4-)pentanamide]: the IC50 was in the range of 100 to 1000 nM.
For the compound `N#CC1(c2ccccc2Cl)CCN(CCCCCc2cccc3c2CN(C2CCC(=O)NC2=O)C3=O)CC1` (stereo not drawn) [Example 92, 4-(2-chlorophenyl)-1-(5-(2-(2,6-oxopiperidine-3-)-1-oxoisoindoline-4-)pentyl)piperidine-4-carbonitrile], the IC50 is less than 100 nM.
Regarding `CCc1cc(COCCCCOc2cccc3c2CN(C2CCC(=O)NC2=O)C3=O)c2ccccc2n1` (stereo not drawn) [Example 214, 3-(4-(4-((2-ethylquinoline-4-)methoxy)butoxy)-1-oxoisoindoline-2-)piperidine-2,6-dione], the IC50 lay within 100 to 1000 nM.
Regarding `Cc1cc(C)c(C2(C#N)CCN(CCCCc3cccc4c3CN(C3CCC(=O)NC3=O)C4=O)CC2)c(C)c1` (stereo not drawn) [Example 261, 1-(4-(2-(2,6-dioxopiperidin-3-yl)-1-oxoisoindolin-4-yl)butyl)-4-sym-trimethylphenylpiperidine-4-carbonitrile], the IC50 is 1000 to 20000 nM.
With `O=C1CCC(N2Cc3c(CCCCN4CCN(c5ccccc5F)CC4)cccc3C2=O)C(=O)N1` (stereo not drawn) [Example 218, 3-(4-(4-(4-(2-fluorophenyl)piperazine-1-yl)butyl)-1-oxoisoindoline-2-yl)piperidine-2,6-dione], the IC50 was less than 100 nM.
With `CC(=O)N[C@@H](CCCc1cccc2c1CN(C1CCC(=O)NC1=O)C2=O)C(=O)N[C@H]1CCc2ccccc21` (stereo partly drawn) [Example 175] the figure was 100 to 1000 nM; with `O=C1CCC(N2Cc3c(OCCNC(=O)N4CCC5(CC4)OCc4ccc(Cl)cc45)cccc3C2=O)C(=O)N1` (stereo not drawn) [Example 155, 6-chloro-N-(2-((2-(2,6-dioxopiperidine-3-)-1-oxoisoindoline-4-)oxy)ethyl)-3H-spiro[isobenzofuran-1,4-piperidine]-1-carboxamide], less than 100 nM; with `N#CC1(c2ccc(OC3COC3)cc2)CCN(CCCCCc2cccc3c2CN(C2CCC(=O)NC2=O)C3=O)CC1` (stereo not drawn) [Example 270, 1-(5-(2-(2,6-dioxopiperidin-3-yl)-1-oxoisoindolin-4-yl)pentyl)-4-(4-(oxetan-3-yloxy)phenyl)piperidine-4-carbonitrile], 100 to 1000 nM.
On to `CC(=O)N[C@@H](CCCc1cccc2c1CN(C1CCC(=O)NC1=O)C2=O)C(=O)Nc1ccc(C)c(Cl)c1` (stereo partly drawn) [Example 202, (2S)-2-acetylamino-N-(3-chloro-4-methylphenyl)-5-(2-(2,6-dioxopiperidine-3-)-1-oxoisoindoline-4-)pentanamide], for which the IC50 is less than 100 nM.
As for `O=C1CCC(N2Cc3c(CCCCN4CCN(c5ccc(Cl)cc5Cl)CC4)cccc3C2=O)C(=O)N1` (stereo not drawn) [Example 222, 3-(4-(4-(4-(2,4-dichlorophenyl)piperazine-1-yl)butyl)-1-oxoisoindoline-2-yl)piperidine-2,6-dione], the IC50 was less than 100 nM.
With `Cc1ccc(NC(=O)[C@H](CCCc2cccc3c2CN(C2CCC(=O)NC2=O)C3=O)NC(=O)C2CCC2)cc1Cl` (stereo partly drawn) [Example 187, N-((2S)-1-((3-chloro-4-methylphenyl)amino)-5-(2-(2,6-dioxopiperidine-3-)-1-oxoisoindoline-4-)-1-oxopentyl-2-)cyclobutylcarboxamide] the figure was less than 100 nM; with `Cc1cc(OCCCCOc2cc(F)cc3c2CN(C2CCC(=O)NC2=O)C3=O)c2ccccc2n1` (stereo not drawn) [Example 212, 3-(6-fluoro-4-(4-((2-methylquinoline-4-)oxy)butoxy)-1-oxoisoindoline-2-)piperidine-2,6-dione], less than 100 nM.
As for `O=C1CCC(N2Cc3c(CCCCCN4CCC5(C4)C(=O)Nc4ccccc45)cccc3C2=O)C(=O)N1` (stereo not drawn) [Example 139], the IC50 is 100 to 1000 nM.
On to `O=C1CCC(N2Cc3c(OCCCCOc4cc(C5CC5)nc5ccccc45)cccc3C2=O)C(=O)N1` (stereo not drawn) [Example 8, 3-(4-(4-((2-cyclopropylquinoline-4-)oxy)butoxy)-1-oxoisoindoline-2-)piperidine-2,6-dione], for which the IC50 was less than 100 nM.
Next, `O=C1CCC(N2Cc3c(CCCCCN4CCC5(CC4)OC(=O)Nc4ccc(Cl)cc45)cccc3C2=O)C(=O)N1` (stereo not drawn) [Example 277, 3-(4-(5-(6-chloro-2-oxo-1,2-dihydrospiro[benzo[1,3]oxazine-4,4′-piperidine]-1′-yl)pentyl)-1-oxoisoindolin-2-yl)piperidine-2,6-dione]: 100 to 1000 nM.
